Source: patent US12076313B2 (CELISTA PHARMACEUTICALS LLC, priority 2020, dated 2024)

Assay: Rat topical application study: effectiveness at low dose and topical absorption
Format: in vivo
Conditions: rats, topical, 20 μg/100 μL
Method: A study was performed in rats with formulations A and B, and a control formulation. Formulation A was IMQ+penetration enhancer (P.E.) at 20 μg/100 μL. […] The Control formulation was IMQ at 20 μg/100 μL in ethanol.

In the case of `CC(C)Cn1cnc2c(N)nc3ccccc3c21` [Imiquimod, 1-(2-methylpropyl)-1H-imidazo[4,5-c]quinolin-4-amine], the “effectiveness at a low dose” value was “effective”.
